Consider 2 compounds from paper PMC9234961 (Journal of Medicinal Chemistry, 2022).

Molecules are shown by their SMILES. pIC50: −log10 of the molar value. Converted amounts (≈) assume the structure as drawn. “And” between values parts separate entries of the source, which are not always exact repeats. Equal values may be shown once. Read-outs that look alike come from different tables or passages of the source. Marks after values point to notes of the source that are not given here.

For data set [1], the target named is endogenous BCL6 in OCI-Ly1 cells (Homo sapiens, UniProt P41182). As to the kind of experiment: cell-based.
Data set [2] is described as follows: Microsomal clearance assay (MLM). The settings on record: mouse liver microsomes, 1 μM compound. It counts as in vitro ADME. The gist of the method: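 Compound (1 µM) was incubated at 37 °C with female CD1 mouse, female Sprague–Dawley rat or mixed-gender human liver microsomes (0.5 mg/mL protein) in 10 mmol/L phosphate, pH 7.4, with 3 mmol/L MgCl2. After 10 min preincubation, 1 mmol/L NADPH started the reaction. Samples taken up to 30 min were methanol-quenched and analysed by LC-MS.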
(In general: Liver microsomes are vesicles of endoplasmic reticulum, rich in cytochrome P450 enzymes.)

The nature of data set [3]: Microsomal clearance assay (HLM). It counts as in vitro ADME. The note with it: both sexes, pH 7.4; human liver microsomes, 1 μM compound. The protocol: (§1) 6. Supplementary experimental: in vitro DMPK assays
(§2) 6.1 Microsomal clearance assay
(§3) Microsomal clearance was determined in female CD1 mice, female Sprague–Dawley rats, and mixed gender human liver microsomes obtained from BioIVT (Peterborough, U.K.) following incubation of 1 μM compound at 37 °C in 0.5 mg/mL microsomal protein, 3 mmol/L MgCl2, 1 mmol/L NADPH, 2.5 mmol/L and 10 mmol/L phosphate buffer (pH 7.4) (all purchased from Sigma-Aldrich, Gillingham, U.K). Reactions were started by addition of the cofactors following 10 min preincubation of microsomes with test compound and were terminated at −1, 0, 5, 10, 15, and 30 min with three volumes of ice-cold methanol containing internal standard. Samples were centrifuged at 2800g for 30 min at 4 °C and the supernatants analyzed.
(§4) Control incubations were prepared as above with omission of cofactors. Compound measurements were […]
(§5) separation with a 3 min gradient of 0.1% formic acid in methanol on a Kinetex C18, 50 × 2.1 mm 2.6 μm UPLC column (Phenomenex, Macclesfield, UK). […]

A short description of data set [4]: Microsomal clearance assay (RLM). The data set is classed as in vitro ADME. The settings on record: female, Sprague-Dawley, pH 7.4; rat liver microsomes, 1 μM compound. The protocol: as §1, §2, §3, §4, §5
Data set [5] is described as follows: logD7.4 assay (Chrom log D method). It counts as physicochemical. The settings on record: reversed-phase HPLC on Phenomenex Luna C8 column, pH 7.4, read-out: Measured logD7.4. The gist of the method: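 Samples at 1mM in 10% DMSO/90% Trizma buffer (100mM Trizma in 75/25 methanol/water) injected onto a C8 column at 30°C under gradient elution at 2 mL/min. Retention calibrated against calibration and validation standards.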

The nature of the next data set: NMR solubility assay. The data set is classed as physicochemical. The settings on record: kinetic solubility by NMR in HEPES buffer at pH 8, 4% DMSO; read-out: Aq. Sol.
Data set [6] is described as follows: in vitro. The settings on record: pH 7.4, 10 µM, 16 h at 30 °C. The data set is classed as in vitro ADME.
Data set [7] is described as follows: in vitro. It counts as in vitro ADME. The settings on record: fraction unbound in OCI-Ly1 DC50 assay medium.
The nature of data set [8]: in vitro. The data set is classed as in vitro ADME. The settings on record: BALB/c; mouse plasma, rapid equilibrium dialysis; read-out: mouse (BALB\c) PPB (converted). In general terms: In equilibrium dialysis only unbound substance equilibrates across the membrane.
Data set [9] can be described thus: In vivo pharmacokinetic study in Balb/C mice. Set-up: species or system mouse. The note with it: female Balb/C mice.
A short description of the next data set: HPLC solubility assay. The data set is classed as physicochemical. The settings on record: solubility by HPLC in PBS buffer and 1% DMSO at pH 7.4.
Data set [10] has as its target T1, human BCL6 BTB domain (Homo sapiens, UniProt P41182).
Protocol: (§6) Assays were performed in a 384-well black Proxiplate (Perkin Elmer) containing 1 nM Trx-6xHis-BCL6 (in
(§7) anti-6xHis-Terbium cryptate (CisBio Bioassays, France), in assay buffer (25 mM Hepes pH8, 100 mM NaCl,
(§8) 0.05% Tween20, 0.5 mM TCEP, 0.05% bovine serum albumin). Test compounds in DMSO or DMSO alone
(§9) were added to the wells using an ECHO550 acoustic dispenser (Labcyte Inc) to give the appropriate test
(§10) concentration in 0.7% v/v DMSO final. After 2 hours incubation at room temperature the plate was read
(§11) The % inhibition at each concentration was calculated by normalising FRET ratio to the
(§12) appropriate high (DMSO with all reagents) and low (DMSO without BCL6) controls. IC50 values were
(§13) determined using GraphPad Prism 6.0 or Dotmatics (Bishops Stortford, UK) software by fitting the
(§14) normalised data to a sigmoidal four-parameter logistic fit equation.
Data set [11] concerns the target T1, human BCL6 BTB domain. As to the kind of experiment: biochemical. The note with it: BCL6 TR-FRET IC50 individual replicates, single replicate values.
Protocol: as §6, §7, §8, §9, §10, §11, §12, §13, §14
Where [12] appears, read: OCI-Ly1, read-out: MSD degrader assay [OCI-Ly1] Dmax, mean maximal degradation of BCL6, OCI-Ly1 cells, 2 h.

Protocol for HPLC solubility assay: 11 4.2 HPLC solubility assay
10 µL of 10 mM DMSO stock solution was pipetted into a micro centrifuge tube (1.5 mL, Sarstedt part-no.
seconds on vortex mixer (Grant-bio vortex mixer) to create 100 µM solution with 1% DMSO. Following shaking of the suspension on a Bohdan Shaker at 500 rpm for 2 hours at room temperature (20 °C), it was
The concentration of the solubilized compound in solubility sample is measured by HPLC with UV detection using an external standard which was prepared by pipetting 10 µL of the same batch of
The detail of the HPLC method is as following: chromatographic separation at 30°C is carried out over a 5 minute gradient elution method from 90:10 to 10:90 water:methanol (both modified with 0.1% formic acid) at a flow rate of 1.5 mL/min. Calibration curve is prepared by injecting 0.5, 2.5, and 5 µL of compound

As for `C[C@@H]1CN(c2ncc(Cl)c(Nc3ccc4c(c3)n(CCC(C)(C)O)c(=O)n4C)n2)C[C@H](C)C1(F)F` [2 CCT369260, 5-((5-Chloro-2-((3R,5S)-4,4-difluoro-3,5-dimethylpiperidin-1-yl)pyrimidin-4-yl)amino)-3-(3-hydroxy-3-methylbutyl)-1-methyl-1,3-dihydro-2H-benzo[d]imidazol-2-one], in [1] (setting [12]), the maximal degradation (Dmax) (as a rule, the greatest extent of degradation seen) is 99.3%. Besides, in data set [2], the “CLint (MLM)” value is listed as 78 μL/min/mg protein. Moreover, the intrinsic metabolic clearance (microsomal CLint) (as a rule, the rate of metabolic loss divided by the concentration) at 0.5 h, 1 µM was found to be 11 µL/min/mg in [3] and 10 µL/min/mg in data set [4]. For the same compound, the chromatographic logD in data set [5] was found to be 4.3. Besides, the solubility kinetic at 20 h in “NMR solubility assay” worked out at 11 µM (≈ 5.6 µg/mL). Also, in the data set “in vitro [6]”, the “PAMPA (pH 7.4)” value was determined as 33 ×10–6 cm s–1. Further, the “fu,media” value in “in vitro [7]” was 0.022. For the same compound, the fraction unbound in “in vitro [8]” is 0.0004. Besides, in [9], the “CL as % Qh” value is given as 22 % Qh. Also, the CL in data set [9] (1 mg/kg i.v.) came out at 1.19 L/h/kg. Besides, the Vd in [9] (mouse, in vivo, 1 mg/kg, read-out: Vss) was determined as 2.1 L/kg. Further, the half-life – broadly, the time in which the quantity being followed falls by half – at 6 h in data set [9] (mouse, in vivo, po, 5 mg/kg) was 1.4 h. Further, the highest level in data set [9] (mouse, in vivo, 1 mg/kg i.v. and 5 mg/kg p.o.) (Cmax) was 1580 nM. The compound further had a F in data set [9] (oral bioavailability, 5 mg/kg p.o. vs 1 mg/kg i.v.) of 54%. The same compound yielded a CLu in data set [9] (unbound clearance) of 2803.9 L/h/kg.

As for `Cn1c(=O)c2c(c3cc(Nc4nc(N5CCC(F)(F)[C@@H](CO)C5)ncc4Cl)ccc31)N[C@@H](C1CC1)C(F)(F)CO2` [9a, (S)-10-((5-Chloro-2-((R)-4,4-difluoro-3-(hydroxymethyl)piperidin-1-yl)pyrimidin-4-yl)amino)-2-cyclopropyl-3,3-difluoro-7-methyl-1,2,3,4-tetrahydro-[1,4]oxazepino[2,3-c]quinolin-6(7H)-one], the greatest degradation seen (Dmax) in data set [1] (OCI-Ly1, read-out: MSD degrader assay [OCI-LY1] Dmax individual replicates, single replicate values) is 76.7%; in data set [1] (setting [12]), 82.8%. For the same compound, the “degradation of BCL6 (in words)” value in data set [1] (OCI-Ly1 MSD assay) is recorded as “fully degraded the protein”. Besides, in [1] (mean maximal degradation of BCL6, OCI-Ly1 cells, 2 h), the “MSD degrader assay [OCI-Ly1] Dmax” value is recorded as 83%. In addition, in [1] (mean of replicates), the “MSD degrader assay [OCI-LY1] pDC50 mean” value is given as 8.5622. Moreover, the DC50 in data set [1] (read-out: Calculated free DC50 [OCI-Ly1], DC50 corrected with fu,media) is 0.24 nM; in [1] (read-out: MSD degrader assay [OCI-LY1] DC50 individual replicates, single replicate values), 2.5 nM and 3 nM; in data set [1] (read-out: MSD degrader assay [OCI-Ly1] DC50, geometric mean, OCI-Ly1 cells, 2 h incubation), 2.7 nM. Besides, the “MSD degrader assay [OCI-LY1] Dmax individual replicates” value in [1] (single replicate values) stood at 89.0%. The intrinsic metabolic clearance (microsomal CLint) at 0.5 h, 1 µM came to 142 µL/min/mg in [2] (female, CD1, pH 7.4); 14 µL/min/mg in data set [3]; 9 µL/min/mg in [4]. For the same compound, the chromatographic logD in data set [5] turned out to be 3.2. In addition, in the data set “HPLC solubility assay”, the “Aq. Sol.” value was 13^f μM and 13 ^e μM. Moreover, the “PAMPA (pH 7.4)” value in “in vitro [6]” is on record as 21 ×10–6 cm s–1. For the same compound, the fraction unbound in “in vitro [7]” (bovine, read-out: fu,media) turned out to be 0.088. The “BCL6 TR-FRET pIC50 mean” value at human BCL6 BTB domain [10] (mean of replicates) is on record as 8.8118. Also, the pIC50 – broadly, −log10 of the IC50, conventionally taken in molar units – on human BCL6 BTB domain [10] (read-out: BCL6 TR-FRET IC50, geometric mean, BCOR-AF633 peptide, 2 h incubation) is 8.82. Further, the half-maximal inhibitory concentration (IC50) – broadly, the point on the concentration scale where inhibition reaches its midpoint – at human BCL6 BTB domain [11] is 1.3 nM and 2.2 nM (2×) and 0.9 nM and 4 nM.
